Experimental findings from PubChem BioAssay (NCI) are described below.

Common to all, as to experiment: NCI-60 cell line screen, 48 h
Assay [1] deals with A549 NSCLC.
In assay [2] the test system is COLO 205 colon.
The subject of assay [3] is HCT-116 colon.
The test system of assay [4] is HS 578T breast.
Assay [5] concerns KM12 colon.
Assay [6] deals with LOX IMVI melanoma.
Assay [7] relates to M14 melanoma.
Assay [8] concerns MALME-3M melanoma.
Assay [9] relates to NCI-H23 lung.
Assay [10] deals with NCI-H522 lung.
For assay [11], the system named is NCI/ADR-RES ovarian.
Assay [12] has as its system OVCAR-3 ovarian.
For assay [13], the system named is PC-3 prostate.
For assay [14], the system named is SNB-75 CNS.
Assay [15] deals with SR leukemia.
The subject of assay [16] is UACC-257 melanoma.

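Five concentrations, 48 hours, 96-well plates. TGI is the concentration that stops growth completely.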

As for `CC(=O)NC1C(OC(C)C(=O)NC(C)C(=O)NC(CCC(=O)NCCCCCNc2ccc([N+](=O)[O-])c3[nH]c4ccccc4c(=O)c23)C(N)=O)C(O)C(CO)OC1(C)OCc1ccccc1` (configuration not stated), the TGI in assay [1], in assay [2], in [3], in assay [4], in [5] and in assay [6] was greater than 100 µM in each case. Moreover, the TGI in assay [7], in [8], in assay [9], in assay [10], in [11] and in assay [12] was greater than 100 µM each time. In addition, the TGI in [13], in assay [14], in assay [15] and in assay [16] was greater than 100 µM throughout.
`COc1ccc(S(=O)(=O)N2C(=O)CCC2C(=O)NC(N)=O)cc1` (configuration not stated): the TGI in assay [1], in assay [2], in assay [3], in assay [4], in [5] and in assay [6] was greater than 100 µM each time. In addition, the TGI in [7], in assay [8], in [9], in assay [10], in [11] and in assay [12] was greater than 100 µM in each case. The TGI was greater than 100 µM in [13], 1.55 µM in assay [14], greater than 100 µM in assay [15] and greater than 100 µM in [16].
Turning to `Cc1ccc(CC2(C(=O)O)Cc3ccc(C)cc3C2)cc1` (configuration not stated), the TGI in assay [1], in assay [2], in assay [3], in assay [4], in assay [5] and in assay [6] was greater than 100 µM throughout. The TGI in [7], in [8], in assay [9], in assay [10], in assay [11] and in assay [12] was greater than 100 µM in each case. Further, the TGI in assay [13], in assay [14], in assay [15] and in assay [16] was greater than 100 µM throughout.
In the case of `CCOc1cc(C2CC(c3ccc(NS(=O)(=O)c4cc([N+](=O)[O-])ccc4C)cc3)=NN2S(=O)(=O)c2cc([N+](=O)[O-])ccc2C)ccc1O` (configuration not stated), the TGI in [1], in [2], in assay [3], in [4], in [5] and in assay [6] was greater than 100 µM each time. Also, the TGI in assay [7] was greater than 100 µM; in assay [8] it was greater than 100 µM; in assay [9], greater than 100 µM; in assay [10] it was greater than 100 µM; in [11], greater than 100 µM; in [12], 71.5 µM. The TGI in assay [13], in assay [15] and in assay [16] was greater than 100 µM throughout.
Consider `CN=C1Nc2ccccc2C(=O)N2CSCC12` (configuration not stated), for which the TGI in [1], in assay [2], in assay [3], in assay [4], in [5] and in assay [6] was greater than 100 µM in each case. The TGI in assay [7], in [8], in assay [10], in [11], in [12] and in assay [13] was greater than 100 µM in each case. Moreover, the TGI in assay [14], in [15] and in assay [16] was greater than 100 µM throughout.
On to `NC(=O)C1CCCN1C(=O)C(Cc1cnc[nH]1)NC(=O)C1CCCC1` (configuration not stated), for which the TGI in assay [1], in assay [2], in [3], in [4], in [5] and in assay [6] was greater than 100 µM throughout. Further, the TGI in [7], in assay [8], in [9], in assay [10], in [11] and in [12] was greater than 100 µM throughout. For the same compound, the TGI in [13], in [14] and in [15] was greater than 100 µM throughout.
In the case of `CCOC(=O)c1nc2cc(C(F)(F)F)ccc2nc1Oc1ccc(C#N)cc1`, the TGI in assay [1], in assay [2], in assay [3], in assay [4], in [5] and in assay [6] was greater than 100 µM each time. For the same compound, the TGI in assay [7], in assay [8], in assay [10], in assay [11], in assay [12] and in assay [13] was greater than 100 µM each time. The TGI in [14], in assay [15] and in assay [16] was greater than 100 µM each time.
For the compound `COC(=O)CCC(=O)c1ccc2c(c1)CCC2`, the TGI in [1], in assay [3], in [4], in assay [6], in assay [7] and in assay [8] was greater than 100 µM in each case. Further, the TGI in assay [9], in [10], in [11], in [12], in assay [13] and in [14] was greater than 100 µM throughout. The TGI in assay [15] and in [16] was greater than 100 µM in each case.
With `CCN1CCC(O)(c2ccc(Oc3ccc(Cl)cc3)cc2)C(C(=O)c2ccc(Oc3ccc(Cl)cc3)cc2)C1` (configuration not stated), the TGI in assay [1] was determined as 20.3 µM; in assay [2] it was 27.4 µM; in assay [3], 12.6 µM; in [4], 58.5 µM; in [5], 14.9 µM; in assay [6], 16.5 µM. The TGI is 28.3 µM in assay [7]; 35.6 µM in assay [8]; 25.7 µM in [9]; 12 µM in assay [10]; 39.9 µM in assay [11]; 21.3 µM in assay [13]. Moreover, the TGI in assay [14] was 26.2 µM; in [15], greater than 100 µM; in [16], 27.1 µM.
